Source: patent US7649113B2, “Mono, di and tri cyclic compounds useful for lowering IgE concentrations” (The Research Foundation of State University of New York, priority 2003, dated 2010)

How the values were obtained:
[1] = system: normal mouse spleen cells; settings: cited from earlier work
[2] = system: PBMC (peripheral blood mononuclear cells); settings: patient PBMC; dose dependent manner; cited from earlier work
[3] = system: mice; settings: cited from earlier work
[4] = system: dogs; settings: cited from earlier work
[5] = system: IgE production; assay: Suppression of human IgE production in vitro; format: cell-based
[6] = system: allergic steroid dependent asthmatic patients; settings: oral administration; cited from earlier work
[7] = system: IgE production; assay: Suppression of human IgE production in vivo
[8] = system: IgE production; assay: Suppression of murine IgE production in vivo
[9] = system: inducible nitric oxide synthase (iNOS); settings: murine macrophages; cited from earlier work
[10] = system: human whole blood cultures; settings: physiological doses; cited from earlier work
[11] = system: rheumatoid arthritis (RA) patients; settings: cited from earlier work

Row | Compound | PHA/IL-4 mediated IgE response [1] | anti-CD40 rhIL-4 mediated in vitro induction of IgE responses [2] | ability to mount delayed-type hypersensitivity responses [3] | severity of osteoarthritis (OA) [4] | human IgE production [5] | oral corticosteroid requirements [6] | symptoms (A.M. and P.M.) [6] | human IgE production [7] | murine IgE production [8] | inducible nitric oxide synthase (iNOS) expression [9] | mitotic responses to phytohemagglutinin [10] | therapy for early RA ([11]; RA patients) | side effects ([11]; mild and moderate RA patients)
1 | C[C@H]1c2cccc(O)c2C(=O)C2=C(O)[C@]3(O)C(=O)C(C(N)=O)=C(O)[C@@H](N(C)C)[C@@H]3[C@@H](O)[C@@H]21 [doxycycline] | suppresses | suppress | inhibit | reduced | suppresses |  |  |  |  |  |  |  | 
2 | CN(C)c1ccc(O)c2c1C[C@H]1C[C@H]3[C@H](N(C)C)C(=O)C(C(N)=O)=C(O)[C@@]3(O)C(=O)C1=C2O [minocycline] |  | suppress |  | reduced | suppresses | decreased | improved their symptoms | suppresses | suppresses | inhibits | inhibits | appears to be an effective therapy | no side effects
